Here are results for six compounds from ChEMBL document CHEMBL5257046, “Characterization of Serrulatane Diterpenoids in Eremophila phyllopoda subsp. phyllopoda by Triple High-Resolution α-Glucosidase/PTP1B/Radical Scavenging Profiling, NMR Spectroscopy, DFT-GIAO NMR, and Electronic Circular Dichroism Calculations” (J Nat Prod, 2023).

As a reminder, the IC50 is the point on the concentration scale where inhibition reaches its midpoint. A low value points to higher potency.

In the first assay the target is Alpha glucosidase (Homo sapiens, UniProt O43451+P10253+P14410+Q2M2H8). Put plainly: Inhibition of alpha-glucosidase (unknown origin) using p-nitrophenyl-glycoside as substrate preincubated for 10 mins followed by substrate addition by microplate reader analysis. Format: protein assay.
In the case of `CC(C)=CCC[C@H](CO)[C@@H]1CC[C@@H](CO)c2c(O)cc(C)cc21`, the IC50 was found to be 28.4 µM.

Compound `CC(C)=CCC[C@H](C)[C@@H]1CC[C@@H](CO)c2c(O)cc(C)cc21` had an IC50 of 64.2 µM.

The target in a further assay is T1, Tyrosine-protein phosphatase non-receptor type 1 (Homo sapiens, UniProt P18031).
T1 sequence (P18031 whole entry): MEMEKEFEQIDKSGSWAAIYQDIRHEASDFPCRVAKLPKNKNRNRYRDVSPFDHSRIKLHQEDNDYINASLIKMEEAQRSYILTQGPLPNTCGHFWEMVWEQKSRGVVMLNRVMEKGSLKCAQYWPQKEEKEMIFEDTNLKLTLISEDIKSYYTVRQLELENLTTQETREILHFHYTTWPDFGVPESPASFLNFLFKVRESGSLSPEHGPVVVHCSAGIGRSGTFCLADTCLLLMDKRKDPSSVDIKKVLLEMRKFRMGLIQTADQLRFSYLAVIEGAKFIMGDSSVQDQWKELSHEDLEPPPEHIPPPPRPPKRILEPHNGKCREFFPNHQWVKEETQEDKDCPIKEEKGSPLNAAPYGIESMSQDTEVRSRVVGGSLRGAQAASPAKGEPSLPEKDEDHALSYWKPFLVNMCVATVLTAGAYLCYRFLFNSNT
Put plainly: Inhibition of PTP1B (unknown origin) using pNPP as substrate preincubated for 10 mins followed by substrate addition and measured every 30 sec for 10 mins by microplate photometer analysis.
Turning to `CCCCCCCCCCCCCCCC(=O)C1=C(O)C(CO)OC1=O` (configuration not stated), half-maximal inhibition (IC50) was put at 14.4 µM.

`CC(C)=CCC[C@H](C)c1cccc2c(O)cc(C)cc12` yielded an IC50 of 16.6 µM.

`CC(C)=CCC[C@H](C)[C@@H]1C[C@H](O)[C@@H](C)c2c(O)cc(C)cc21` gave a half-inhibitory concentration (IC50) of 80 µM. Compared with the last compound, the IC50 is about 4.8-fold higher.

Compound `CC(C)=CCC[C@H](C)[C@H]1c2cc(C)cc(O)c2[C@H](C)C[C@H]1O` had an IC50 of 105 µM. The IC50 values of the last two compounds are within 1.5-fold of each other.

Regarding `CC(C)=CCC[C@H](C)[C@@H]1CC[C@@H](CO)c2c(O)cc(C)cc21`, the IC50 was 20 µM. Against the preceding compound, the IC50 is about 5.2-fold lower.
